Experimental data as given in PubChem BioAssay (NCI).
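Interpolation was linear, between the two tested concentrations surrounding the appropriate level; five concentrations were tested over 48 hours in 96-well plates. TGI marks complete inhibition of growth.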

How the values were obtained:
Assay in all cases: inhibition of tumour cell growth, NCI panel, 48 h
[1] = test system: 786-0 renal
[2] = test system: A498 renal
[3] = test system: A549 NSCLC
[4] = test system: ACHN renal
[5] = test system: BT-549 breast
[6] = test system: CAKI-1 renal
[7] = test system: CCRF-CEM leukemia
[8] = test system: COLO 205 colon
[9] = test system: DU-145 prostate
[10] = test system: EKVX NSCLC
[11] = test system: HCC-2998 colon
[12] = test system: HCT-116 colon
[13] = test system: HCT-15 colon
[14] = test system: HL-60(TB) leukemia
[15] = test system: HOP-62 NSCLC
[16] = test system: HOP-92 NSCLC
[17] = test system: HS 578T breast
[18] = test system: HT29 colon
[19] = test system: IGROV1 ovarian
[20] = test system: K-562 leukemia
[21] = test system: KM12 colon
[22] = test system: LOX IMVI melanoma
[23] = test system: M14 melanoma
[24] = test system: MALME-3M melanoma
[25] = test system: MCF7 breast
[26] = test system: MDA-MB-231 breast
[27] = test system: MDA-MB-435
[28] = test system: MDA-N
[29] = test system: MOLT-4 leukemia
[30] = test system: NCI-H226 lung
[31] = test system: NCI-H23 lung
[32] = test system: NCI-H460 lung
[33] = test system: NCI-H522 lung
[34] = test system: OVCAR-3 ovarian
[35] = test system: OVCAR-4 ovarian
[36] = test system: OVCAR-5 ovarian
[37] = test system: OVCAR-8 ovarian
[38] = test system: PC-3 prostate
[39] = test system: RPMI-8226 leukemia
[40] = test system: RXF 393 renal
[41] = test system: SF-268 CNS
[42] = test system: SF-295 CNS
[43] = test system: SF-539 CNS
[44] = test system: SK-MEL-2 melanoma
[45] = test system: SK-MEL-28 melanoma
[46] = test system: SK-MEL-5 melanoma
[47] = test system: SK-OV-3 ovarian
[48] = test system: SN12C renal
[49] = test system: SNB-19 CNS
[50] = test system: SNB-75 CNS
[51] = test system: SR leukemia
[52] = test system: SW-620 colon
[53] = test system: T-47D breast
[54] = test system: TK-10 renal
[55] = test system: U251 CNS
[56] = test system: UACC-257 melanoma
[57] = test system: UACC-62 melanoma
[58] = test system: UO-31 renal
[59] = test system: NCI/ADR-RES ovarian

Measured: TGI

CC1CC2=C(C1)C(C1(C)C(=O)CC3C(C1=O)C3(C)C)C(C)C2=O (stereo unspecified)
not listed: [59]
> 100 µM: all other assays above

CCCCCC(/C=C/C1CCC(=O)C1)OCOCCOC (stereo unspecified)
> 92.2 µM: [7]
36 µM: [33]
46.3 µM: [43]
> 76.9 µM: [6]
44.5 µM: [29]
> 71.7 µM: [41]
> 66.7 µM: [56]
58.6 µM: [4]
67.5 µM: [18]
> 73.6 µM: [12]
60.3 µM: [39]
> 81.8 µM: [51] | [52]
> 71 µM: [5] | [22]
> 86.7 µM: [20]
58.5 µM: [58]
99.2 µM: [59]
99.3 µM: [2]
42.5 µM: [1]
57.8 µM: [50]
> 95.4 µM: [37]
84.5 µM: [16]
not listed: [17]
> 100 µM: all other assays above
